Source: patent US8440442B2, “Method of assaying 5-FU” (Myriad Genetics, Inc, priority 2009, dated 2013)

Legend:
[1] = target: T1, dihydropyrimidine dehydrogenase (DPD) (Homo sapiens, UniProt Q12882); assay: 5-Vinyluracil, 5-iodouracil and gimeracil as stabilizer of 5-FU in spiked donor blood; assay type: biochemical; details: 500 ng/mL 5-FU; 5-iodouracil 10/40 μg/mL, 5-vinyluracil 5/20 μg/mL, gimeracil 300/1,200 ng/mL; 45 minutes room temperature (FIG. 3)
T1 construct: from tissue; host or cells: donor whole blood (K2EDTA), plasma separated from it, and WBC/buffy coat
T1 sequence (Q12882 4-1025): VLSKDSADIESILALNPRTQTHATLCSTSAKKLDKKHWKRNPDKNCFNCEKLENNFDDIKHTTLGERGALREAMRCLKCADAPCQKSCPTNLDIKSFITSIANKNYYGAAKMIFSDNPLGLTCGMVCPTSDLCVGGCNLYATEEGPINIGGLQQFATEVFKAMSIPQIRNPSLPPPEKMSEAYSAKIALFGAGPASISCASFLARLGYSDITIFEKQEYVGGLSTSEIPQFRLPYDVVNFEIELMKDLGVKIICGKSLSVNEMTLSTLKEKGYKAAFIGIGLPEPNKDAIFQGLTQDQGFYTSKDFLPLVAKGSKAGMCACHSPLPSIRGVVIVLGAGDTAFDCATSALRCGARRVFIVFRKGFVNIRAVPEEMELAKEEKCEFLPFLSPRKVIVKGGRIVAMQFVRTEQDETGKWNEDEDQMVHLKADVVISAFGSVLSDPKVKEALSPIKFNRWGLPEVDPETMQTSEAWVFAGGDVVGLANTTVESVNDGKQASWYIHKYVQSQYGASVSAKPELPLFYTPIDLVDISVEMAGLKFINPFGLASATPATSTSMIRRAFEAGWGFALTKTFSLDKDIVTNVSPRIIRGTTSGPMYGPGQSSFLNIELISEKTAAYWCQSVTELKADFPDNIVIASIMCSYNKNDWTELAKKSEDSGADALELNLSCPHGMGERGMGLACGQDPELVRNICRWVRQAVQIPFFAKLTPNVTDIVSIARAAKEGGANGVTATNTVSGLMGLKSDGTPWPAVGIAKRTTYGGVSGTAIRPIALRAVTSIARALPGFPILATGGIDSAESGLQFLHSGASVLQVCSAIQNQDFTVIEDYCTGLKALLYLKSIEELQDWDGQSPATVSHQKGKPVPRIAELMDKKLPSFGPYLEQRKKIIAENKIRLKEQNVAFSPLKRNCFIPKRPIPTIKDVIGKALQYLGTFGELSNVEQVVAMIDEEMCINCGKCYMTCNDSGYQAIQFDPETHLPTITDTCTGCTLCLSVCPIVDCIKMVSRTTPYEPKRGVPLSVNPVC
Experimental: (§1) In the following illustrative examples, 5-FU was measured using an antibody-based agglutination assay on the Olympus AU680 Analyzer using an antibody disclosed in U.S. Pat. No. 7,205,116. Specifically, the concentration of 5-FU in a sample is determined based on the absorbance of a sample, which is determined by the amount of aggregation by the nanoparticles. The system requires two reagents, which when mixed in the absence of free 5-FU will form large aggregates of nanoparticles and scatter light to result in a higher absorption value. In the presence of free 5-FU, the agglutination reaction becomes somewhat inhibited and scattering of light is less, causing a lower absorption value. The instrument is calibrated twice monthly, and a curve is generated (Absorbance vs. 5-FU concentration). Absorbance values from individual samples are compared against this curve to determine concentration.
(§2) Generally in the agglutination assay, 95 μl of a buffer containing 5-FU-labeled amino-dextran is pipetted to a cuvette, followed by 7 μL of a filtered plasma sample. The sample and reagent are mixed and then incubated for about 3.5 minutes. 95 μl of 5-FU antibody-conjugated nanoparticles is pipetted into the cuvette and mixed. The complete reaction incubates for about 6.2 minutes. A series of 27 measurements at 600 nm are taken at regular intervals by the AU680 analyzer throughout this process, and 5-FU concentration is calculated using the measurements from two specific time points.
Three tubes of blood (spray-on K2EDTA tubes, 10 mL) was drawn from each of six donors, and blood tubes were gently inverted several times to mix anti-coagulant. Blood was pooled and kept separate by donor. An aliquot of each blood sample was transferred to a new conical tube, and a calculated volume of stock 5-FU (at 200 ng/μL) was spiked into each blood sample for a final concentration of 500 ng/mL 5-FU. Each blood sample was aliquotted to a set of four tubes (5 mL blood per tube). Each set of tubes was different, but included a combination of the conditions below: […]

[2] = target: T1, dihydropyrimidine dehydrogenase (DPD); assay: Eniluracil as stabilizer of 5-FU in spiked donor blood (5-FU agglutination immunoassay); assay type: biochemical; details: eniluracil 4000 or 1000 ng/mL final in blood, DMSO; 500 ng/mL 5-FU; room temperature 45 minutes or 24 hours (FIG. 2)
Experimental: as §1
as §2, with “95 μl of 5-FU antibody-conjugated nanoparticles is pipetted into the cuvette and mixed. The complete reaction incubates for about 6.2 minutes.” left out, “points. […]” for “points.”

stabilizing 5-FU in blood samples [1]	preventing degradation of 5-FU in blood samples [2]	Structure (SMILES)
effective	–	O=c1[nH]cc(I)c(=O)[nH]1 [5-iodouracil]
effective	–	C=Cc1c[nH]c(=O)[nH]c1=O [5-vinyluracil]
–	effective	C#Cc1c[nH]c(=O)[nH]c1=O [eniluracil]
